Assay results reported in ChEMBL document CHEMBL1201862, “PubChem BioAssay data set” (2004).
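Five concentrations, 48 hours, 96-well plates. Abbreviation: GI50, concentration required for 50% inhibition of growth.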 Activity calls are given as the source filed them. Rule as the data show it: active = GI50 up to about 1.1 µM and inactive = higher.

Legend:
Assay in all cases: growth of human tumour cells (NCI), 48 h
Hs-578T = system: Hs-578T
SK-MEL-2 = system: SK-MEL-2
SW-620 = system: SW-620
MDA-MB-231 = system: MDA-MB-231
LOX IMVI = system: LOX IMVI
SNB-75 = system: SNB-75
COLO 205 = system: COLO 205
NCI-H226 = system: NCI-H226
OVCAR-8 = system: OVCAR-8
HCT-15 = system: HCT-15
UACC-257 = system: UACC-257
M14 = system: M14
SK-MEL-5 = system: SK-MEL-5
LXFL 529 = system: LXFL 529
DMS-114 = system: DMS-114
M19-MEL = system: M19-MEL
HOP-18 = system: HOP-18
SF-539 = system: SF-539
HL-60 = system: HL-60
BT-549 = system: BT-549

CCOC(=O)C(Cc1cn(C(C)=O)c2ccccc12)P(=O)(OCC)OCC (stereo not given)
GI50 (Hs-578T): > 100 µM (inactive) | GI50 (SK-MEL-2): > 100 µM (inactive) | GI50 (SW-620): > 100 µM (inactive) | GI50 (MDA-MB-231): > 100 µM (inactive) | GI50 (LOX IMVI): > 100 µM (inactive) | GI50 (SNB-75): > 100 µM (inactive) | GI50 (COLO 205): > 100 µM (inactive) | GI50 (NCI-H226): > 100 µM (inactive) | GI50 (OVCAR-8): > 100 µM (inactive) | GI50 (HCT-15): > 100 µM | GI50 (UACC-257): > 100 µM (inactive) | GI50 (M14): > 100 µM (inactive) | GI50 (SK-MEL-5): > 100 µM (inactive)

O=C(O)c1cc2c(ncc3c(=O)n(-c4ccccc4)[nH]c32)s1
GI50 (SK-MEL-2): > 100 µM (inactive) | GI50 (LXFL 529): > 100 µM (inactive) | GI50 (SW-620): > 100 µM (inactive) | GI50 (LOX IMVI): > 100 µM (inactive) | GI50 (DMS-114): > 100 µM (inactive) | GI50 (COLO 205): > 100 µM (inactive) | GI50 (NCI-H226): > 100 µM (inactive) | GI50 (OVCAR-8): > 100 µM (inactive) | GI50 (M19-MEL): > 100 µM (inactive) | GI50 (HCT-15): > 100 µM | GI50 (HOP-18): > 100 µM (inactive) | GI50 (M14): > 100 µM (inactive) | GI50 (SF-539): > 100 µM (inactive)

Clc1ccc(/N=c2\oc3ccccc3cc2-c2nc3ccccc3[nH]2)c(Cl)c1
GI50 (Hs-578T): 34.2 µM (inactive) | GI50 (SW-620): > 100 µM (inactive) | GI50 (LOX IMVI): > 100 µM (inactive) | GI50 (OVCAR-8): > 100 µM (inactive) | GI50 (HCT-15): > 100 µM | GI50 (HL-60): > 100 µM (inactive) | GI50 (UACC-257): > 100 µM (inactive) | GI50 (BT-549): > 100 µM (inactive) | GI50 (M14): > 100 µM (inactive)

O=C1CCc2cc3c(cc21)CC1(Cc2cc4c(cc2C1)CCCC4)C3
GI50 (Hs-578T): 30.5 µM (inactive) | GI50 (SK-MEL-2): > 100 µM (inactive) | GI50 (SW-620): 29.1 µM (inactive) | GI50 (MDA-MB-231): 19.4 µM (inactive) | GI50 (LOX IMVI): 58.5 µM (inactive) | GI50 (SNB-75): 14.6 µM (inactive) | GI50 (COLO 205): 33 µM (inactive) | GI50 (OVCAR-8): > 100 µM (inactive) | GI50 (HCT-15): 69 µM | GI50 (HL-60): 27.9 µM (inactive) | GI50 (UACC-257): 35.6 µM (inactive) | GI50 (BT-549): > 100 µM (inactive) | GI50 (M14): 30.3 µM (inactive) | GI50 (SK-MEL-5): 24.6 µM (inactive) | GI50 (SF-539): > 100 µM (inactive)
